The subject of the experiment is hypotension induced by PAF. Briefly: Inhibition of the hypotensive effect induced by PAF in normotense rats. In kind it is in vivo, Sprage Dawley rats. The settings on record: Rattus norvegicus, iv.
[1] abbreviates: i.v. (femoral vein) 3 min before PAF 0.5 mcg/Kg i.v., anesthetized male rats, mean arterial pressure, read-out: ID50 (the source's name).

Structures can show the parent of a compound that is named as a salt. Where two headings read alike, the source gives them in different places.

Experimental: Male Sprage Dawley rats, of 180-220 g of weight, anesthetized with sodium pentobarbital (50 mg/Kg, i.p. 1 mU100 g) have been used. In order to measure the average arterial pressure, a polyethylene catheter is introduced into the carotid artery. The arterial pressure is recorded with the help of a transducer connected with a R611 Beckman polygraph. The tested compounds are administered through the femoral vein 3 min. before the injection of PAF (0.5 mcg/Kg, i.v.).

For `N#CC(c1cccnc1)N1CCN(C(=O)C(Cc2ccccc2)Cc2ccccc2)CC1` (stereo not shown) [Compound 13, 1-(2-Phenylmethyl-3-phenylpropanoyl)-4-(3-pyridylcyanomethyl) piperazine, dichlorhydrate], the ED50 under setting [1] came to 0.68 mg/kg.

For the compound `N#CC(c1cccnc1)N1CCN(C(=O)C(Cc2ccccc2)c2ccccc2)CC1` (stereo not shown) [Compound 10, 1-(2,3-Diphenylpropanoyl)-4-(3-pyridylcyanomethyl)piperazine], the ED50 under setting [1] was determined as 0.12 mg/kg.

As to `N#CC(c1cccnc1)N1CCN(C(=O)CN(CCCc2ccccc2)Cc2ccccc2)CC1` (stereo not shown) [Compound 41, 1-(N-benzyl-N-(3-phenylpropyl)aminoacetyl)-4-(3-pyridylcyanomethyl) piperazine, trihydrochloride], under setting [1], the ED50 was found to be 1.5 mg/kg.

Consider `CC(C(=O)N1CCN(C(C#N)c2cccnc2)CC1)c1ccccc1.Cl.Cl` (stereo not shown) [Compound 14, 1-(2-Phenylpropanoyl)-4-(3-pyridylcyanomethyl)piperazine, dihydrochloride], for which the ED50 under setting [1] turned out to be 0.26 mg/kg.

For the compound `N#CC(c1cccnc1)N1CCN(C(=O)C(=Cc2ccccc2)c2ccccc2)CC1` (stereo not shown) [Compound 16, 1-(2,3-Diphenylpropenoyl)-4(3-pyridylcyanomethyl)piperazine], the ED50 under setting [1] is 0.17 mg/kg.

As to `N#CC(c1cccnc1)N1CCN(C(=O)Cc2cccc3ccccc23)CC1` (stereo not shown) [Compound 2, 1-(1-Naphthylacetyl)-4-(3-pyridylcyanomethyl)piperazine], the ED50 (read-out: ID50) amounted to 1.3 mg/kg.

Regarding `Cl.Cl.N#CC(c1cccnc1)N1CCN(C(=O)OCC(c2ccccc2)c2ccccc2)CC1` (stereo not shown) [Compound 31, 1-((2,2-diphenylethoxy)carbonyl)-4-(3-pyridylcyanomethyl)piperazine, dihydrochloride], the ED50 under setting [1] was 0.078 mg/kg.

Consider `N#CC(c1ccncc1)N1CCN(C(=O)CNC(=O)C(c2ccccc2)c2ccccc2)CC1` (stereo not shown) [Compound 57, 1-(N-(diphenylacetyl)aminoacetyl)-4-(4-pyridylcyanomethyl)piperazine], for which the ED50 under setting [1] stood at 0.47 mg/kg.

With `N#CC(c1cccnc1)N1CCN(C(=O)CC(c2ccccc2)c2ccccc2)CC1` (stereo not shown) [Compound 12, 1-(3,3-Diphenylpropanoyl)-4-(3-pyridylcyanomethyl)piperazine], the ED50 under setting [1] stood at 0.016 mg/kg.

Turning to `CC(C(=O)N1CCN(C(C#N)c2cccnc2)CC1)(c1ccccc1)c1ccccc1.Cl.Cl` (stereo not shown) [Compound 8, 1-(2,2-Diphenylpropanoyl)-4-(3-pyridylcyanomethyl)piperazine, dihydrochloride], under setting [1], the ED50 stood at 0.14 mg/kg.

With `Cl.Cl.N#CC(c1cccnc1)N1CCN(C(=O)C(O)c2ccccc2)CC1` (stereo not shown) [Compound 27, 1-(2-phenyl-2-hydroxyacetyl)-4-(3-pyridylcyanomethyl)piperazine, dihydrochloride], the ED50 under setting [1] came out at 1.1 mg/kg.

Turning to `N#CC(c1cccnc1)N1CCN(C(=O)CCNC(c2ccccc2)c2ccccc2)CC1` (stereo not shown) [Compound 47, 1-(3-(N-(diphenylmethyl)amino)propanoyl)-4-(3-pyridylcyanomethyl) piperazine], the ED50 under setting [1] was found to be 0.025 mg/kg.

In the case of `N#CC(c1cccnc1)N1CCN(C(=O)CN(Cc2ccccc2)c2ccccc2)CC1` (stereo not shown) [Compound 38, 1-(N-benzyl-N-phenylaminoacetyl)-4-(3-pyridylcyanomethyl)piperazine], the ED50 under setting [1] amounted to 0.42 mg/kg.

`N#CC(c1cccnc1)N1CCN(C(=O)Cc2ccccc2)CC1` (stereo not shown) [Compound 5, 1-(Phenylacetyl)-4-(3-pyridylcyanomethyl)piperazine]: the ED50 (read-out: ID50) is 1.5 mg/kg.

Regarding `Cl.Cl.N#CC(c1cccnc1)N1CCN(C(=O)C(c2ccccc2)c2ccccc2)CC1` (stereo not shown) [Compound 9, 1-(Diphenylacetyl)-4-(3-pyridylcyanomethyl)piperazine, dihydrochloride], the ED50 under setting [1] stood at 0.11 mg/kg.

For `CCCCCCCC(=O)N1CCN(C(C#N)c2cccnc2)CC1.Cl` (stereo not shown) [Compound 19, 1-(Octanoyl)-4-(3-pyridylcyanomethyl)piperazine hydrochloride], the ED50 under setting [1] came to 1.2 mg/kg.

As for `N#CC(c1cccnc1)N1CCN(C(=O)CCCc2ccccc2)CC1` (stereo not shown) [Compound 7, 1-(4-Phenylbutanoyl)-4-(3-pyridylcyanomethyl)piperazine], the ED50 under setting [1] turned out to be 5 mg/kg.

Take `COc1cc(C(=O)N2CCN(C(C#N)c3cccnc3)CC2)cc(OC)c1OC.Cl.Cl` (stereo not shown) [Compound 22, 1-(3,4,5-Trimethoxybenzoyl)-4-(3-pyridylcyanomethyl)piperazine, dihydrochloride]: under setting [1], the ED50 was determined as 4.3 mg/kg.

As for `Cl.Cl.Cl.N#CC(c1cccnc1)N1CCN(C(=O)Cc2c[nH]c3ccccc23)CC1` (stereo not shown) [Compound 33, 1-(3-indolylacetyl)-4-(3-pyridylcyanomethyl)piperazine, trihydrochloride], the ED50 (read-out: ID50) stood at 3.5 mg/kg.

For the compound `N#CC(c1cccnc1)N1CCN(C(=O)CC(O)(c2ccccc2)c2ccccc2)CC1` (stereo not shown) [Compound 28, 1-(3,3-Diphenyl-3-hydroxypropanoyl)-4-(3-pyridylcyanomethyl)piperazine], the ED50 under setting [1] amounted to 0.061 mg/kg.

Take `N#CC(c1cccnc1)N1CCN(C(=O)CNC(c2ccccc2)c2ccccc2)CC1` (stereo not shown) [Compound 44, 1-(N-(diphenylmethyl)aminoacetyl)-4-(3-pyridylcyanomethyl) piperazine, trihydrochloride]: under setting [1], the ED50 was 0.023 mg/kg.

With `N#CC(c1cccnc1)N1CCN(C(=O)CNC(c2ccccc2)c2ccc(Cl)cc2)CC1` (stereo not shown) [Compound 46, 1-(N-(1-(4-chlorophenyl)-1-phenylmethyl)aminoacetyl)-4-(3-pyridylcyanomethyl) piperazine, trihydrochloride], under setting [1], the ED50 is 0.13 mg/kg.

Consider `COc1ccc(C(CC(=O)N2CCN(C(C#N)c3cccnc3)CC2)c2ccc(OC)cc2)cc1` (stereo not shown) [Compound 25, 1-(3,3-bis(4-methoxyphenyl)propanoyl)-4-(3-pyridylcyanomethyl) piperazine], for which the ED50 under setting [1] came to 0.19 mg/kg.

For the compound `Cl.Cl.Cl.N#CC(c1cccnc1)N1CCN(C(=O)CN(Cc2ccccc2)Cc2ccccc2)CC1` (stereo not shown) [Compound 49, 1-(N,N-dibenzylaminoacetyl)-4-(3-pyridylcyanomethyl)piperazine, trihydrochloride], the ED50 under setting [1] amounted to 1.7 mg/kg.

Turning to `CN(CC(=O)N1CCN(C(C#N)c2cccnc2)CC1)C(c1ccccc1)c1ccccc1` (stereo not shown) [Compound 45, 1-(N-diphenylmethyl-N-methylaminoacetyl)-4-(3-pyridylcyanomethyl) piperazine, trihydrochloride], under setting [1], the ED50 came out at 0.33 mg/kg.

On to `N#CC(c1cccnc1)N1CCN(C(=O)C=Cc2ccccc2)CC1` (stereo not shown) [Compound 15, 1-(3-Phenylpropenoyl)-4-(3-pyridylcyanomethyl)piperazine, dichlorhydrate], for which the ED50 under setting [1] turned out to be 0.24 mg/kg.

For the compound `N#CC(c1cccnc1)N1CCN(C(=O)C=C(c2ccccc2)c2ccccc2)CC1` (stereo not shown) [Compound 17, 1-(3,3-Diphenylpropenoyl)-4-(3-pyridylcyanomethyl)piperazine], under setting [1], the ED50 was 0.049 mg/kg.

For the compound `Cl.Cl.Cl.N#CC(c1cccnc1)N1CCN(C(=O)CNC(Cc2ccccc2)c2ccccc2)CC1` (stereo not shown) [Compound 52, 1-(N-(1,2-diphenylethyl)aminoacetyl)-4-(3-pyridylcyanomethyl)piperazine, trihydrochloride], the ED50 under setting [1] turned out to be 0.34 mg/kg.

As for `N#CC(c1cccnc1)N1CCN(C(=O)CCc2ccccc2)CC1` (stereo not shown) [Compound 6, 1-(3-Phenylpropanoyl)-4-(3-pyridylcyanomethyl)piperazine, dichlorhydrate], under setting [1], the ED50 was found to be 1.2 mg/kg.

On to `Cl.Cl.N#CC(c1cccnc1)N1CCN(C(=O)c2ccc3ccccc3c2)CC1` (stereo not shown) [Compound 1, 1-(2-Naphthoyl)-4-(3-pyridylcyanomethyl)piperazine, dihydrochloride], for which the ED50 under setting [1] came out at 5 mg/kg.

Regarding `N#CC(c1cccnc1)N1CCN(CCNC(=O)C(c2ccccc2)c2ccccc2)CC1` (stereo not shown) [Compound 62, 1-(2-(N-(diphenylacetyl)amino)ethyl)-4-(3-pyridylcyanomethyl)piperazine], the ED50 under setting [1] was 0.29 mg/kg.

As for `N#CC(c1cccnc1)N1CCN(C(=O)C(CCc2ccccc2)c2ccccc2)CC1` (stereo not shown) [Compound 11, 1-(2,4-Diphenylbutanoyl)-4-(3-pyridylcyanomethyl)piperazine], the ED50 under setting [1] was 0.73 mg/kg.

As to `COc1ccc(C(=CC(=O)N2CCN(C(C#N)c3cccnc3)CC2)c2ccc(OC)cc2)cc1.Cl.Cl` (stereo not shown) [Compound 26, 1-(3,3-bis(4-methoxyphenyl)propenoyl)-4-(3-pyridylcyanomethyl)piperazine, dihydrochloride], the ED50 under setting [1] came out at 0.17 mg/kg.

With `Cl.Cl.N#CC(c1ccncc1)N1CCN(C(=O)CC(c2ccccc2)c2ccccc2)CC1` (stereo not shown) [Compound 67, 1-(3,3-diphenylpropanoyl)-4-(4-pyridylcyanomethyl)piperazine, dihydrochloride], under setting [1], the ED50 worked out at 0.034 mg/kg.

`N#CC(c1ccncc1)N1CCN(C(=O)CC(O)(c2ccccc2)c2ccccc2)CC1` (stereo not shown) [Compound 29, 1-(3,3-Diphenyl-3-hydroxypropanoyl)-4-(4-pyridylcyanomethyl)piperazine]: the ED50 under setting [1] turned out to be 0.061 mg/kg.

Regarding `Cl.Cl.Cl.N#CC(c1cccnc1)N1CCN(C(=O)CNc2cccc3ccccc23)CC1` (stereo not shown) [Compound 34, 1-(N-(1-naphthyl)aminoacetyl)-4-(3-pyridylcyanomethyl)piperazine, trihydrochloride], the ED50 under setting [1] was found to be 3 mg/kg.

On to `N#CC(c1ccncc1)N1CCN(C(=O)CCNC(c2ccccc2)c2ccccc2)CC1` (stereo not shown) [Compound 48, 1-(3-(N-(diphenylmethyl)amino)propanoyl)-4-(4-pyridylcyanomethyl)piperazine], for which, under setting [1], the ED50 was 0.037 mg/kg.

Source of the values: patent EP0441226A1, “(cyanomethyl)pyridines useful as PAF antagonists” (J. URIACH & CIA. S.A., priority 1990, dated 1991).
